Reference: publication PMC2736896 (2009)

Biological target: bilitranslocase (BTL) homologue
Test: inhibition of electrogenic BSP uptake into pulp microsomes, spectrophotometric
Type: biochemical, Vitis vinifera

Row | Ki [µM] | Structure (SMILES)
1 | 75.8 | O=C1C[C@@H](c2ccc(O)c(O)c2)Oc2cc(O)cc(O)c21 [eriodictyol]
2 | 97.5 | O=c1c(O)c(-c2ccc(O)c(O)c2)oc2cc(O)cc(O)c12 [quercetin]
